In patent US10570104B2, “Metabolically programmed metal chelators and uses thereof” (University of Florida Research Foundation, Incorporated, priority 2015, dated 2020):
Entries after “also recorded” stand apart in the source; their conditions may differ. Read-outs that look alike come from different tables or passages of the source.

What was measured:
[1] = log Papp, octanol/TRIS buffer pH 7.4, shake flask direct method; format: physicochemical; conditions: not told
Text: The redesign of 2 was predicated on the observation that both ligands 2 and 3 were orally active iron chelators in rodents and primates (Table 1), and that when the 4′-(OH) of 2 was methylated, providing (S)-4,5-dihydro-2-(2-hydroxy-4-methoxyphenyl)-4-methyl-4-thiazolecarboxylic acid^43 [(S)-4′-(CH3O)-DADFT, 4], there was a remarkable enhancement in both ICE and lipophilicity (log Papp). The log Papp data are expressed as the log of the fraction of the chelator seen in the octanol layer; measurements were done in TRIS buffer, pH 7.4, using a “shake flask” direct method.^49 The more negative the log Papp, the less chelator is in the octanol phase, the less lipophilic. Unfortunately, the increase in ICE of 4 came with a concomitant increase in toxicity.^50 Thus, the delicate balance between the increase in ICE and toxicity with enhanced lipophilicity needed to be understood and exploited.

[2] = Tissue distribution/metabolism of chelators in rats given sc (HPLC); format: in vivo, Sprague-Dawley rats
Method: Collection of Chelator Tissue Distribution Samples from Rodents. Male Sprague-Dawley rats (250-350 g) were given a single subcutaneously injection of the monosodium salts of 8 and 11 prepared as described above at a dose of […]. At times 0.5, 1, 2, 4 and 8 hours after dosing (n=3 rats per time point), the animals were euthanized by exposure to CO2 gas. Blood was obtained via cardiac puncture into vacutainers containing sodium citrate. The blood was centrifuged, and the plasma was separated for analysis. The liver, kidney, heart, and pancreas were removed from the animals and frozen.
Tissue Analytical Methods. Tissue samples of animals treated with 8 were prepared for HPLC analysis by homogenizing them in H2O at a ratio of 1:1 (w/v). Then, as a rinse, CH3OH at a ratio of 1:3 (w/v) was added, and the mixture was stored at −20° C. for 30 min. This homogenate was centrifuged. The supernatant was diluted with H2O, vortexed, and filtered with a 0.2 μm membrane. Analytical separation was performed on a Supelco Discovery RP Amide C16 HPLC system with UV detection at 310 nm as described previously.^44,75 Mobile phase and chromatographic conditions were as follows: solvent A, 5% CH3CN/95% buffer (25 mM KH2PO4+2.5 mM 1-octanesulfonic acid, pH 3.0); solvent B, 60% CH3CN/40% buffer.
Tissue samples of animals treated with 11 were prepared for HPLC analysis by homogenizing them in 0.5 N HClO4 at a ratio of 1:3 (w/v). Then, as a rinse, CH3OH at a ratio of 1:3 (w/v) was added, and the mixture was stored at −20° C. for 30 min. This homogenate was centrifuged. The supernatant was diluted with 95% buffer (25 mM KH2PO4, pH 3.0)/5% CH3CN, vortexed, and filtered with a 0.2 μm membrane. Analytical separation was performed on a Supelco Ascentis Express RP-Amide HPLC system with UV detection at 310 nm as described previously. Mobile phase and chromatographic conditions were as for 8.
Ligand concentrations were calculated from the peak area fitted to calibration curves by nonweighted least-squares linear regression with Shimadzu Class-VP 7.4 software.

[3] = cited from earlier work
[4] = cited from earlier work; remark: listed apart in the source
[5] = Tissue distribution/metabolism of chelators in rats given sc (HPLC); format: in vivo, Sprague-Dawley rats; conditions: for metabolism of 7 to 8 and 9 in tissues: sc 7, HPLC of tissues
[6] = rats, cited from earlier work
[7] = rats, sc, 300 mol/kg (so in the source); liver; 2 hours post drug; cited from earlier work
[8] = even when administered b.i.d.; cited from earlier work
[9] = Chelator-induced iron clearance (ICE) in iron-overloaded Cebus apella primates; format: in vivo, Cebus apella monkeys; conditions: 75 μmol/kg, monosodium salt
Method: Iron Loading of Cebus apella Monkeys. The monkeys (3.5-6.5 kg) were iron overloaded with intravenous iron dextran as specified in earlier publications to provide about 500 mg of iron per kg of body weight; the serum transferrin iron saturation rose to between 70 and 80%.^38,40 At least 20 half-lives, 60 days, elapsed before any of the animals were used in experiments evaluating iron-chelating agents.
Primate Fecal and Urine Samples. Fecal and urine samples were collected at 24 hours intervals and processed as described previously^38,40,74 Briefly, the collections began 4 days prior to the administration of the test drug and continued for an additional 5 days after the drug was given. Iron concentrations were determined by flame absorption spectroscopy as presented in other publications.^38′^40
Drug Preparation and Administration.
Calculation of Chelator Iron Clearing Efficiency (ICE).

[10] = for Rat ICE (%): 300 μmol/kg, monosodium salt
Method: Sample collection and handling are as previously described.^38,40
Drug Preparation and Administration. In the iron clearing experiments, the rats were given 8-14 orally at a dose of 300 μmol/kg. […] The chelators were administered as their monosodium salts (prepared by the addition of 1 equiv of NaOH to a suspension of the free acid in distilled water).
Calculation of Chelator Iron Clearing Efficiency (ICE). The term “ICE” is used as a measure of the amount of iron excretion induced by a chelator. The ICE, expressed as a percent, is calculated as (ligand-induced iron excretion/theoretical iron excretion)×100. […] The theoretical iron outputs of the chelators were generated on the basis of a 2:1 ligand:iron complex. The efficiencies in the rats and monkeys were calculated as set forth elsewhere.^37 Data are presented as the mean±the standard error of the mean; p-values were generated via a one-tailed Student's t-test in which the inequality of variances was assumed, and a p-value of <0.05 was considered significant.

[11] = 10-day toxicity trial of (S)-4′-(HO)-DADFT-HXA (11) in rats
Method: Note that this dose is equivalent to 100 mg/kg/day of DFT (1) as its sodium salt. The rats were housed in individual metabolic cages and were weighed each day. […] The rats were fasted overnight and were given the chelator first thing in the morning. […] The animals were euthanized one day post drug (day 11). […] Additional age-matched rats served as untreated controls for the CBC and serum chemistries and histopathology. No urine was collected from these animals. The studies were performed on rats with normal iron stores.
Aten-day toxicity trial of 11 was carried out in male Sprague-Dawley rats. The animals were housed in individual metabolic cages. […] Note that this dose is equivalent to 100 mg/kg/day of DFT (1) as its sodium salt. Urine was collected from the metabolic cages at 24-hour intervals and assessed for its Kim-1 content. The studies were performed on rats with normal iron stores; each animal served as its own control. Additional age-matched rats served as untreated controls for the CBC and serum chemistry assessments and histopathology.

[12] = 2:1 complex with Fe(III), cited from earlier work
[13] = rats; cited from earlier work
[14] = cited from earlier work; remark: listed apart in the source
[15] = rats; cited from earlier work; remark: listed apart in the source
[16] = po, 300 μmol/kg, 48 hour sample collection period, historical
[17] = treated rats, one day post drug, 384 μmol/kg/day po x 10 days

SMILES: COCCOCCOc1ccc(C2=N[C@@](C)(C(=O)O)CS2)c(O)c1 [Compound 7, (S)-4,5-dihydro-2-[2-hydroxy-4-(3,6-dioxaheptyloxy)phenyl]-4-methyl-4-thiazolecarboxylic acid]
- Log Papp [1]: −0.89
- share of total drug concentration ([2]; sc 7, plasma, 0.5 hour): 95%
- Rodent ICE (%) [3, 16]: 26.7 ± 4.7%
- Primate ICE (%) ([4]; po, 75 μmol/kg, as monosodium salt, historical): 28.7±12.4%
- Primate ICE (%) ([4]; po, 75 μmol/kg, in capsules, historical): 26.3 ± 9.9%
- cleavage of 7 to 2 ([5]; sc 7): no cleavage to 2; also recorded: does not sustain metabolic cleavage at the 4′-(HO) to yield 2
- metabolism of 7 to 8 and 9 in tissues [5]: cleavage of the terminal methyl of 7 to the corresponding alcohol 8 did occur
- histopathology ([6]; extensive tissues): no drug-related abnormalities were identified
- CBC and serum chemistries ([6]; po s.i.d. 28 d (56.9-170.7 μmol/kg/day), s.i.d. 10 d (384 μmol/kg/d), b.i.d. 7 d (474 μmol/kg/d)): No drug-related abnormalities were found
- BUN and SCr levels ([6]; same regimens): within the normal range
- urinary Kim-1 excretion ([6]; up to 28 days): did not elicit any increases in urinary Kim-1 excretion

SMILES: COc1ccc(C2=N[C@@](C)(C(=O)O)CS2)c(O)c1 [Compound 4, (S)-4,5-dihydro-2-(2-hydroxy-4-methoxyphenyl)-4-methyl-4-thiazolecarboxylic acid]
- Log Papp [1]: −0.70
- Rodent ICE (%) ([3]; po, 300 μmol/kg, historical): 6.6 ± 2.8%
- Primate ICE (%) ([4]; po, 150 μmol/kg, historical): 24.4 ± 10.8%
- proportion of administered compound cleaved to its hydroxy metabolite (2 or 3) [7]: about 30%

SMILES: COCCOCCOCCOc1ccc(C2=N[C@@](C)(C(=O)O)CS2)c(O)c1 [Compound 5, (S)-4,5-dihydro-2-[2-hydroxy-4-(3,6,9-trioxadecyloxy)phenyl]-4-methyl-4-thiazolecarboxylic acid]
- Log Papp [1]: −1.10
- Rodent ICE (%) ([3]; po, 300 μmol/kg, historical): 5.5 ± 1.9%
- Primate ICE (%) ([4]; po, 150 μmol/kg, historical): 25.4 ± 7.4%
- proportion of administered compound cleaved to its hydroxy metabolite (2 or 3) [7]: 2%
- renal toxicity [8]: no renal toxicity

SMILES: C[C@]1(C(=O)O)CSC(c2ccc(OCCCCCCO)cc2O)=N1 [Compound 11, (S)-4,5-dihydro-2-[2-hydroxy-4-(6-hydroxyhexyloxy)phenyl]-4-methyl-4-thiazolecarboxylic acid]
- Log Papp [1]: 0.21
- Cebus ICE (%) ([9]; po): 21.9±3.6%
- conversion of 11 to 12-14 ([2]; sc 11, 300 μmol/kg): Significant conversion of 11→12-14 was found in all of the tissues examined; also recorded: quickly converted to the corresponding hydrophilic metabolites; also recorded: quickly converted to the corresponding hydrophilic acids 12, 13, and 14; also recorded: very quickly converted to the corresponding acid (12)
- tissue concentration ([2]; sc 11, heart, 0.5 hour): 26 nmol/g wet weight
- detection in kidney ([2]; sc 11, kidney): trace amounts 0.5 hour post drug
- detection in liver ([2]; sc 11, liver): not found in the liver at any of the time points
- tissue concentration ([2]; sc 11, pancreas, 0.5 hour): < 5 nmol/g wet weight
- detection in plasma ([2]; sc 11, plasma): no longer detectable
- share of total (parent+metabolites) ([2]; sc 11, plasma, 0.5 hour): 22%
- Rat ICE (%) ([10]; po): 9.9 ± 0.8%
- oral absorption ([10]; rats, po): well absorbed
- overt toxicity ([10]; rats, po 300 μmol/kg, single dose): did not present with any overt toxicity; also recorded: did not display any overt toxicity; also recorded: did not elicit any signs of overt toxicity
- urinary Kim-1 excretion ([11]; baseline and not exceeded during the 10-day exposure, 384 μmol/kg/day po): < 20 ng/kg/24 hours
- histopathology ([11]; extensive tissues (25/rat), 384 μmol/kg/day po x 10 days): did not identify any drug-related abnormalities
- survival / overall toxicity ([11]; rats, po once daily for 10 days, 384 μmol/kg/day): All of the rats treated with 11 survived the exposure to the drug; also recorded: lack of toxicity
- BUN [11, 17]: 20 ± 4 mg/dL
- SCr [11, 17]: 0.5 ± 0.1 mg/dL

SMILES: C[C@]1(C(=O)O)CSC(c2ncccc2O)=N1 [Compound 1, (S)-4,5-dihydro-2-(3-hydroxy-2-pyridinyl)-4-methyl-4-thiazolecarboxylic acid]
- Log Papp [1]: −1.77
- Rodent ICE (%) ([3]; po, 150 μmol/kg): 5.5±3.2%
- Primate ICE (%) ([4]; po, 150 μmol/kg, historical): 16.1±8.5%
- cumulative formation constant [12]: 4e+29 M⁻¹
- cumulative formation constant ([12]; unit not given): 4×10^29
- nephrotoxicity [13]: severe nephrotoxicity; also recorded: unacceptable renal toxicity

SMILES: C[C@]1(C(=O)O)CSC(c2ccc(O)cc2O)=N1 [Compound 2, (S)-2-(2,4-dihydroxyphenyl)-4,5-dihydro-4-methyl-4-thiazolecarboxylic acid]
- Log Papp [1]: −1.05
- Rodent ICE (%) ([3]; po, 300 μmol/kg, historical): 1.1±0.8%
- Primate ICE (%) ([4]; po, 150 μmol/kg, historical): 16.8±7.2%
- tolerability in patients ([14]; 5, 10, or 15 mg/kg/day once daily for up to 12 weeks): well tolerated
- renal toxicity in patients ([14]; twice daily 12.5 mg/kg (25 mg/kg/d), three patients after 4-5 weeks): unacceptable renal toxicity

SMILES: CC(=O)N(O)CCCCCNC(=O)CCC(=O)N(O)CCCCCNC(=O)CCC(=O)N(O)CCCCCN [DFO, desferrioxamine B]
- Rodent ICE (%) ([3]; sc, 150 μmol/kg): 2.5 ± 0.7%
- Primate ICE (%) ([4]; sc, 150 μmol/kg): 5.5 ± 0.9%
- effect on colitis [15]: prevent acetic acid-induced colitis

SMILES: C[C@]1(C(=O)O)CSC(c2ccc(OCCOCC(=O)O)cc2O)=N1 [Compound 9, (S)-4,5-dihydro-2-[2-hydroxy-4-(4-carboxy-3-oxabutyloxy)phenyl]-4-methyl-4-thiazolecarboxylic acid]
- Log Papp [1]: −1.63
- Cebus ICE (%) ([9]; po): 1.7±1.4%
- Cebus ICE (%) ([9]; sc): 17.4±9.7%
- share of drug (parent+metabolite) ([2]; sc 8, 300 μmol/kg, liver, 1 hour): 59%
- detection in liver ([2]; sc 8, 300 μmol/kg, liver, 8 hours): no metabolite 9 remains
- share of drug (parent+metabolite) ([2]; sc 8, 300 μmol/kg, plasma, 2 hour post dosing): 88%
- detection in plasma ([2]; sc 8, 300 μmol/kg, plasma, 8 hour): Neither the parent 8 nor the metabolite 9 was found at the 8 hour time point
- Rat ICE (%) ([10]; po): 6.2 ± 1.7%
- Rat ICE (%) ([10]; sc): 11.3 ± 3.4%
- metabolism of 7 to 8 and 9 in tissues [5]: not detected

SMILES: COCCOCCOCCOc1cccc(C2=N[C@@](C)(C(=O)O)CS2)c1O [Compound 6, (S)-4,5-dihydro-2-[2-hydroxy-3-(3,6,9-trioxadecyloxy)phenyl]-4-methyl-4-thiazolecarboxylic acid]
- Log Papp [1]: −1.22
- ICE ([3]; po, 150 μmol/kg, compound 6 dose response): 18.7±2.9%
- iron decorporated ([3]; po, 150 μmol/kg): 0.782 ± 0.121 mg/kg
- Rodent ICE (%) [3, 16]: 10.6±4.4%
- quantity of iron excreted ([3]; po, 300 μmol/kg): 0.887 ± 0.367 mg/kg
- Primate ICE (%) ([4]; po, 150 μmol/kg, historical): 23.0 ± 4.1%
- proportion of administered compound cleaved to its hydroxy metabolite (2 or 3) [7]: 2.6%
- renal toxicity [8]: no renal toxicity
